Laboratory results: the NIST ThermoML archive (doi:10.1016/j.fluid.2011.12.007)
± gives the expanded uncertainty stated by the source.

Columns and labels:
[1] = for mass density: 101.33 kPa, Liquid, Vibrating tube method; for surface tension liquid-gas: Maximal bubble pressure
[2] = refractive index (Na D-line) (dimensionless); details: 298.15 K; 101.33 kPa; Liquid; Standard Abbe refractometry
[3] = xn = mol fraction of the nth substance listed; details: 303.15 K, Maximal bubble pressure
[4] = Boiling temperature at pressure P; details: 101.33 kPa; Liquid; Ebulliometric method (Recirculating still)

CCCCCC [hexane]
Details	mass density [kg/m3]
[1], 298.15 K	655.19 ± 0.17

Details	refractive index
[2]	1.37374 ± 0.00031

CCCCCC [hexane] + C1CCOCC1
Details	surface tension liquid-gas [mN/m]
[3], x1 = 1	17.4 ± 0.25

C1CCOCC1 [tetrahydropyran]
[1]
Details	mass density [kg/m3]	surface tension liquid-gas [mN/m]
283.15 K	–	29.61 ± 0.28
288.15 K	–	29.15 ± 0.28
293.15 K	–	28.56 ± 0.28
298.15 K	879.03 ± 0.09	28 ± 0.28
303.15 K	–	27.14 ± 0.27
308.15 K	–	26.5 ± 0.27
313.15 K	–	25.55 ± 0.27
318.15 K	–	25.25 ± 0.27
323.15 K	–	24.23 ± 0.27
328.15 K	–	23.6 ± 0.26
333.15 K	–	22.75 ± 0.26

Details	Boiling temperature at pressure P [°C]	refractive index
[2]	–	1.42 ± 0.00031
[4]	88.21 ± 0.04	–

C1CCOCC1 [tetrahydropyran] + CCCCCC
[3]
Details	surface tension liquid-gas [mN/m]
x2 = 0	27.1 ± 0.27
x2 = 0.045	26.47 ± 0.27
x2 = 0.09	25.64 ± 0.27
x2 = 0.181	24.39 ± 0.27
x2 = 0.282	23.17 ± 0.26
x2 = 0.383	22.03 ± 0.26
x2 = 0.487	21.13 ± 0.26
x2 = 0.589	20.39 ± 0.26
x2 = 0.674	19.47 ± 0.25
x2 = 0.786	18.77 ± 0.25
x2 = 0.899	18.12 ± 0.25
x2 = 0.964	17.46 ± 0.25
